# Experiments:
# [1] = test system: Human umbilical cord blood cells; Lin(−)CD34^+ cells isolated after treatment; assay: Gene expression arrays after treatment of whole cord blood; type: cell-based
# Experimental: Further experiments were performed to determine if CD34^+ cells responded to 16,16-dimethyl PGE2 when cells were treated in the context of a whole cord blood clinical treatment protocol. Human umbilical cord blood cells were incubated for 120 minutes at 37° C. with vehicle or 10 μM 16,16-dimethyl PGE2 (See FIGS. 17A-17D). After the incubation, Lin(−) CD34^+ cells were isolated using Miltenyi magnetic sorting. Biotin-labeled aRNA was prepared from the cells, and gene expression profiles were analyzed. […]
# These experiments were repeated using human whole cord blood cells to determine if the CD34^+ expression results can be translated to the clinical setting. […] After the incubation, Lin(−)CD34^+ cells were isolated, labeled aRNA was prepared from the cells, and gene expression profiles were analyzed. […]
# After treatment, the cells were washed with LMD/5% HSA medium, centrifuged for 10 minutes at 650× g at room temperature and resuspended in a cold selection buffer (phosphate buffered saline (PBS) with no Ca^+ or Mg^+; 2 mM EDTA; and 0.5% HSA). […] Once the Lin-CD34^+ cells were isolated from the treated whole cord blood, an aliquot was analyzed by flow cytometry to assess purity. […]
# [2] = test system: human CD34^+ cells; assay: Microfluidic qPCR using the Fluidigm platform (signature genes of Table 3); type: cell-based; conditions: 37° C.
# Experimental: Real-time PCR transcript quantitation from 16,16-dimethyl PGE2 ex vivo treated CD34+ cell samples was performed using the BioMark Dynamic Array microfluidics system (Fluidigm Corporation, South San Francisco, Calif., USA). Total RNA was isolated from treated cells using Pico Pure RNA Isolation Kit (Molecular Devices, Sunnyvale, Calif., USA). Complimentary DNA (cDNA) was reverse transcribed from 50 ng of isolated total RNA using the High-Capacity cDNA Reverse Transcription Kit (Life Technologies Corporation, Carlsbad, Calif., USA).
# cDNA was pre-amplified for specific target genes (96) using a 200 nM mixture of 96 gene specific primer pairs (see Table 1), including 6 reference control genes using the TaqMan PreAmp Master Mix Kit (Life Technologies) protocol. Specific target amplification (STA) from cDNA was performed using 14 cycles of amplification with the standard cycling conditions using the manufacturer's protocol. EvaGreen dye (Biotium, Inc. Hayward, Calif., USA) was added according to Fluidigm's EvaGreen protocol to detect amplified products. For samples, the reaction mix contained 3.0 μL Gene Expression Master Mix (Life Tech.), 0.3 μL Sample Loading Buffer (Fluidigm), 0.3 μL 20× EvaGreen dye (Biotium, Inc.), 1.5 μL diluted (1:5 sterile nH2O) STA cDNA, and 0.9 μL sterile diH2O for loading into the sample inlets of the 96.96 Dynamic Array (Fluidigm).
# Samples were run in replicates, from 5 to 9 wells. For primer pairs, the reaction mix contained 2.5 μL Gene Specific Primer pairs (20 μM) and 2.5 μL Assay Loading Buffer (Fluidigm) for loading into the assay inlets on the 96.96 Dynamic Array (Fluidigm). 96.96 Dynamic arrays were loaded using a NanoFlex IFC Controller HX (Fluidigm) and real-time reactions were performed using a BioMark Real-Time PCR System (Fluidigm).
# Results were analyzed using BioMark Real-Time PCR Analysis software. Average Cts were calculated from the sample replicates and delta-delta Cts (ΔΔCt) were calculated using the mean of 6 reference genes (ACTB, GAPDH, HPRT1, QARS, ARPC2 and LRIG2) against a vehicle only sample. Cts above 28 or amplified products with inappropriate melting curve properties were excluded from the calculations.
# A microfluidic qPCR platform was also used to measure expression changes of a 16,16-dimethyl PGE2 gene expression signature of the genes listed in Table 3 in human CD34^+ cells at different incubation times.
# Further, gene expression signatures were measured on cells that received short pulse treatments with 16,16-dimethyl PGE2 followed by a recovery period in the absence of the drug. Human CD34^+ cells were incubated for different times in the presence of 16,16-dimethyl PGE2 followed by a wash and recovery period in media designed to reflect the in vivo setting. The experimental design matched the ex vivo treatment paradigm where cells are treated, washed to remove the drug and then administered to the patient. CD34^+ cells were incubated with 16,16-dimethyl PGE2 at 37° C. for 5, 15, 30, 60, or 120 minutes and the gene expression signatures were analyzed. For incubation periods less than 120 minutes, the cells were washed in media to remove the 16,16-dimethyl PGE2 and then the cells were incubated for the remaining period in media to allow time for gene expression to take place.
smiles,measurement,setting,value
"CCCCC(C)(C)[C@H](O)/C=C/[C@H]1[C@H](O)CC(=O)[C@@H]1C/C=C\CCCC(=O)O [16,16-dimethyl PGE2]",response of whole cord blood (more than 99% Lineage+ cells),"[1]; 10 μM, 37° C., 2 hours, FIGS. 17A-17D","did not respond to 16,16-dimethyl PGE2 in a similar manner"
same,concentration giving the maximal gene expression signature,"[1]; whole cord blood treated 120 minutes at 37° C., Lin(−)CD34+ cells isolated",10 µM
same,pulse incubation giving maximal gene expression changes,[2]; 10 μM,about 2 hours
same,constant exposure after which suitable gene expression signatures were detectable,"[2]; 10 μM, FIG. 14A",at least 60 minutes
same,constant exposure giving maximal gene expression response,"[2]; 10 μM, FIG. 14A-B",after at least about two hours
same,pulse incubation after which recognizable gene expression signatures were observed,"[2]; 10 μM, recovery to 120 minutes total",about 30 minutes
same,gene expression response to short pulse treatments (5-15 minutes),"[2]; 10 μM, recovery to 120 minutes total, FIGS. 15A-15B",not sufficient
same,concentration at which the gene expression signature was maximal,"[2]; 2 hours, FIGS. 16A-16B",10 µM
